Laboratory results taken from US11376228B2 (Genifarm Laboratories Inc, priority 2018, dated 2022).
pIC50: −log10 of the molar value.

How the values were obtained:
Assay type in all cases: cell-based
[1] = system: human gastric cancer cells MKN45; assay: MTT assay, proliferation of human gastric cancer cells MKN45; settings: for pIC50: Homo sapiens, MKN-45, MKN45, MTT, 48 h, 0-60 μM, read-out: IC50 on the proliferation of human gastric cancer cells MKN45; for inhibitory effects on human gastric cancer cells MKN45 (in words): MKN45, summary of Table 1; for effect compared with control gossypol I-A9, MKN45: MKN45, versus gossypol I-A9
Experimental: (§1) The original culture medium for human gastric cancer cells MKN45 was removed, and human gastric cancer cells MKN45 were rinsed with 2 mL of phosphate buffer saline (PBS), digested with 0.5 mL of pancreatic enzyme for 3 min. 2 mL of culture medium was added to the cells and the mixture was transferred to a centrifuge tube. The mixture was centrifuged (200 g) for 5 min. The supernatant was removed. 2 mL of culture medium was sprayed five times to the remaining solution. 0.5 mL of cell suspension was transferred to an Eppendorf (EP) tube and the cells were counted. The cells were cultured on a 96-well plate, each well having 2000 cells, 3 wells for each compound. The numbers of the required cells and wells and the amount of culture medium were calculated. The cells were diluted by the culture medium. 100 μL culture medium was added to each well and were evenly dispersed, each well containing 2000 cells. The cells were transferred to the wells using a pipette, and cultured in an incubator.
(§2) (2) Adding Compounds to Culture Medium
(§3) The original culture medium was discarded, and the mother liquor of each compound was diluted to final concentrations of 0, 5, 15, 30, 45 and 60 μM, respectively. Each diluent was uniformized. To each head of a multichannel pipette, 100 μL of the diluent was introduced. Three heads were employed. The diluents were added to 3 marked wells (the cells were undamaged) of a tilted 96-well plate, respectively. Different concentrations of diluents were added to three different marked wells and evenly mixed by alternately sucking and blowing with the multichannel pipette 3 times. The 96-well plate was shaken slightly twice, and cultured in a CO2 incubator.
(§4) The cells were cultured in different compounds for 48 h and were then detected. Specifically, a clean bench was turned on for 15 min, and phosphate buffer saline (PBS) was pre-heated in a warm water bath for 15 min. MTT was taken out of a refrigerator at −20 degrees, protected from light and thawed (MTT stock solution was 5 mg/mL). MTT and a culture medium were mixed evenly in a V-shaped groove to yield a mixture comprising 500 μg/mL MTT and a culture medium (a volume ratio thereof being 1:10). 100 μL of the prepared MTT mixture was added to each well of the 96-well plate using the multichannel pipette, and then incubated at 37° C. for an appropriate time (1 h), thereby reducing the MTT to formazan (purple crystals formed in the cells under a microscope, which were different in medicated cells and unmedicated cells). The upper liquid was removed with a white pipette tip attached to a vacuum pump. For each concentration of the compounds, 3 pipette tips were employed. After the incubation, the MTT mixture was discarded, and then 100 μL of DMSO was added to each well using the multichannel pipette. The 96-well plate was shaken in a shaker for 10 min (until the purple crystals were dissolved in the cells under the microscope).
The absorbance value of the cells was measured at a wavelength of 550 nm with a microplate reader. The survival rate of the cells treated with different concentrations of compounds was calculated to make a scatter plot. The IC50 results of each compound on the proliferation of human gastric cancer cells MKN45 were shown in Table 1, where Gossypol I-A9 is a control sample.

[2] = system: human prostate cancer cells PC3; assay: MTT assay, proliferation of human prostate cancer cells PC3; settings: for pIC50: Homo sapiens, PC3, MTT, 48 h, 0-32 μM, read-out: IC50 on the proliferation of human prostate cancer cells PC3; for inhibitory effects on human prostate cancer cells PC3 (in words): PC3, summary of Table 4; for effect compared with control gossypol I-A9, PC3: PC3, versus gossypol I-A9
[3] = system: human lung cancer cells A549; assay: MTT assay, proliferation of human lung cancer cells A549; settings: for inhibitory effects on human lung cancer cells A549 (in words): A549, summary of Table 3; for effect compared with control gossypol I-A9, A549: A549, versus gossypol I-A9; for pIC50: Homo sapiens, A549, MTT, 48 h, 0-80 μM, read-out: IC50 on the proliferation of human lung cancer cells A5499
Experimental: as §1, with “lung” for “gastric”, “A549” for “MKN45”
as §2
as §3, with “10, 20,” for “15,”, “60” for “45”, “80” for “60”
as §4
The absorbance value of the resulting solution was detected at a wavelength of 550 nm with a microplate reader. The survival rate of cells treated with different concentrations of drugs was calculated in accordance with the requirements to make a scatter plot. The IC50 results of each compound on the proliferation of human lung cancer cells A549 were shown in Table 3, where Gossypol I-A9 is a control sample.

[4] = system: human ovarian cancer cells SKOV3; assay: MTT assay, proliferation of human ovarian cancer cells SKOV3; settings: for pIC50: Homo sapiens, SK-OV-3, SKOV3, MTT, 48 h, 0-16 μM, read-out: IC50 on the proliferation of human ovarian cancer cells SKOV3; for inhibitory effects on human ovarian cancer cells SKOV3 (in words): SKOV3, summary of Table 2
Experimental: as §1, with “ovarian” for “gastric”, “SKOV3” for “MKN45”
as §2
as §3, with “1, 2, 4, 8” for “5, 15, 30, 45”, “16” for “60”
as §4
The absorbance value of the resulting solution was detected at a wavelength of 550 nm with a microplate reader. The survival rate of cells treated with different concentrations of drugs was calculated in accordance with the requirements to make a scatter plot. The IC50 results of each compound on the proliferation of human ovarian cancer cells SKOV3 were shown in Table 2, wherein Gossypol I-A9 is a control sample.

Cc1c(O)c(O)c(C=O)c(COCc2ccccc2)c1-c1ccc(F)cc1 [Compound I-26]
pIC50 [1]: 4.78
inhibitory effects on human gastric cancer cells MKN45 (in words) [1]: significant inhibitory effects
pIC50 [2]: 5.00
inhibitory effects on human prostate cancer cells PC3 (in words) [2]: significant inhibitory effects

Cc1c(O)c(O)c(C=O)c(COCc2ccccc2)c1-c1ccccc1C#N [Compound I-28]
inhibitory effects on human lung cancer cells A549 (in words) [3]: inhibitory effects
effect compared with control gossypol I-A9, A549 [3]: slightly inferior to that of the Gossypol I-A9
pIC50 [3]: 4.17

COc1ccc(-c2c(C)c(O)c(O)c(C=O)c2COCc2ccccc2)cc1 [Compound I-29]
inhibitory effects on human lung cancer cells A549 (in words) [3]: inhibitory effects
effect compared with control gossypol I-A9, A549 [3]: slightly inferior to that of the Gossypol I-A9
pIC50 [3]: 4.38
pIC50 [2]: 5.37
inhibitory effects on human prostate cancer cells PC3 (in words) [2]: significant inhibitory effects
effect compared with control gossypol I-A9, PC3 [2]: superior than the gossypol I-A9

Cc1c(C)c(COCc2ccccc2)c(C=O)c(O)c1O [Compound I-39]
pIC50 [1]: 5.18
inhibitory effects on human gastric cancer cells MKN45 (in words) [1]: significant inhibitory effects
effect compared with control gossypol I-A9, MKN45 [1]: better than the control gossypol I-A9

Cc1cc(C)cc(-c2c(C)c(O)c(O)c(C=O)c2COCc2ccccc2)c1 [Compound I-45]
inhibitory effects on human lung cancer cells A549 (in words) [3]: inhibitory effects
effect compared with control gossypol I-A9, A549 [3]: slightly inferior to that of the Gossypol I-A9
pIC50 [3]: 4.58
pIC50 [2]: 5.18
inhibitory effects on human prostate cancer cells PC3 (in words) [2]: significant inhibitory effects
effect compared with control gossypol I-A9, PC3 [2]: superior than the gossypol I-A9

CC(C)c1c(O)c(O)c(C=O)c2c1C(c1ccccc1)CC2 (centres unmarked) [Compound I-50, 5,6-dihydroxy-7-isopropyl-1-phenyl-2,3-dihydro-1H-indene-4-carbaldehyde]
pIC50 [1]: 4.91
inhibitory effects on human gastric cancer cells MKN45 (in words) [1]: significant inhibitory effects
effect compared with control gossypol I-A9, MKN45 [1]: better than the control gossypol I-A9
pIC50 [2]: 5.54
inhibitory effects on human prostate cancer cells PC3 (in words) [2]: significant inhibitory effects
effect compared with control gossypol I-A9, PC3 [2]: superior than the gossypol I-A9

Cc1cc(COCc2ccccc2)c(CO)c(O)c1O [Compound I-96]
inhibitory effects on human gastric cancer cells MKN45 (in words) [1]: significant inhibitory effects

COc1cc(OC)c(Cc2cc(C)c(O)c(O)c2CO)c(OC)c1 [Compound I-97]
inhibitory effects on human gastric cancer cells MKN45 (in words) [1]: significant inhibitory effects
pIC50 [4]: ≤ 4.46

C#CCOCc1c(C=O)c(O)c(O)c(C)c1-c1ccccc1 [I-A2]
pIC50 [4]: 4.94
inhibitory effects on human ovarian cancer cells SKOV3 (in words) [4]: significant inhibitory effects
pIC50 [2]: 5.30
inhibitory effects on human prostate cancer cells PC3 (in words) [2]: significant inhibitory effects
effect compared with control gossypol I-A9, PC3 [2]: superior than the gossypol I-A9

COc1cccc2c(OC)c(Cc3cc(C)c(O)c(O)c3C=O)ccc12 [I-A3]
pIC50 [4]: 5.19
inhibitory effects on human ovarian cancer cells SKOV3 (in words) [4]: significant inhibitory effects
effect compared with control gossypol I-A9, SKOV3 ([4]; SKOV3, versus gossypol I-A9): superior to that of the gossypol I-A9
pIC50 [2]: 5.18
inhibitory effects on human prostate cancer cells PC3 (in words) [2]: significant inhibitory effects
effect compared with control gossypol I-A9, PC3 [2]: superior than the gossypol I-A9

Cc1cc(CSCc2ccccc2)c(C=O)c(O)c1O [I-A4]
inhibitory effects on human lung cancer cells A549 (in words) [3]: inhibitory effects
effect compared with control gossypol I-A9, A549 [3]: slightly inferior to that of the Gossypol I-A9
pIC50 [3]: 4.23

COc1cc(OC)c(Cc2c(C#Cc3ccccc3)c(C)c(O)c(O)c2C=O)c(OC)c1 [I-A5]
pIC50 [4]: 5.01
inhibitory effects on human ovarian cancer cells SKOV3 (in words) [4]: significant inhibitory effects
pIC50 [2]: 5.38
inhibitory effects on human prostate cancer cells PC3 (in words) [2]: significant inhibitory effects
effect compared with control gossypol I-A9, PC3 [2]: superior than the gossypol I-A9
